“And” between values parts separate entries of the source, which are not always exact repeats. Equal entries are not always repeated. Toxic doses and inconclusive results are not listed. How the source made its calls: active means survival T/C of 150% or more; inactive means T/C below 125% in these data.
Tested on: BDF1 mice, P388 leukemia ip, median survival T/C
Experiment: NCI In Vivo Anticancer Drug Screen. Data for tumor model P388 Leukemia (intraperitoneal) in B6D2F1 (BDF1) mice
Details: endpoint: median survival time, higher = longer survival
In short: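 Reported as T/C, where T is the survival measurement in dosed animals and C the same measurement in vehicle controls.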

[1] = dose: 25.0 mg/kg/injection, schedule: Q01DX009 (ip), vehicle: saline
[2] = dose: 50.0 mg/kg/injection, schedule: Q01DX009 (ip), vehicle: saline
[3] = dose: 50.0 mg/kg/injection, schedule: Q04DX003 (ip), vehicle: saline
[4] = dose: 100.0 mg/kg/injection, schedule: Q01DX009 (ip), vehicle: saline
[5] = dose: 100.0 mg/kg/injection, schedule: Q04DX003 (ip), vehicle: saline
[6] = dose: 200.0 mg/kg/injection, schedule: Q01DX009 (ip), vehicle: saline
[7] = dose: 200.0 mg/kg/injection, schedule: Q04DX003 (ip), vehicle: saline
[8] = dose: 1.56 mg/kg/injection, schedule: Q01DX009 (ip), vehicle: saline
[9] = dose: 3.12 mg/kg/injection, schedule: Q01DX009 (ip), vehicle: saline
[10] = dose: 6.25 mg/kg/injection, schedule: Q01DX009 (ip), vehicle: saline

Measured: T/C

CCOc1cc(/C=N\Nc2nnc(C)n2N)c(C)cc1N(CCCl)CCCl
active: dose: 5.5 mg/kg/injection, schedule: Q01DX009 (ip), vehicle: saline with Tween-80 200 % of control | dose: 8.3 mg/kg/injection, schedule: Q01DX009 (ip), vehicle: saline with Tween-80 209 % of control | dose: 12.5 mg/kg/injection, schedule: Q01DX009 (ip), vehicle: saline with Tween-80 272 % of control | dose: 18.7 mg/kg/injection, schedule: Q01DX009 (ip), vehicle: saline with Tween-80 195 % of control | dose: 40.0 mg/kg/injection, schedule: Q04DX003 (ip), vehicle: saline 204 % of control | dose: 50.0 mg/kg/injection, schedule: Q04DX003 (ip), vehicle: saline sonified 168 % of control
inactive: dose: 100.0 mg/kg/injection, schedule: Q04DX003 (ip), vehicle: saline sonified 86 % of control

CC(=O)OCC(=O)[C@@]1(O)CC[C@H]2[C@@H]3CCC4=CC(=O)CC[C@]4(C)[C@@]3(Cl)[C@@H](O)C[C@@]21C
inactive: dose: 18.7 mg/kg/injection, schedule: Q04DX003 (ip), vehicle: saline with Tween-80 109 % of control | dose: 37.5 mg/kg/injection, schedule: Q04DX003 (ip), vehicle: saline with Tween-80 109 % of control | dose: 66.0 mg/kg/injection, schedule: Q04DX003 (ip), vehicle: saline with Tween-80 113 % of control | dose: 75.0 mg/kg/injection, schedule: Q04DX003 (ip), vehicle: saline with Tween-80 118 % of control | dose: 150.0 mg/kg/injection, schedule: Q04DX003 (ip), vehicle: saline with Tween-80 118 % of control

COc1ccccc1OC(=O)Nc1ccc(C)c([N+](=O)[O-])c1
inactive: dose: 25.0 mg/kg/injection, schedule: Q04DX003 (ip), vehicle: saline with Tween-80 100 % of control | dose: 50.0 mg/kg/injection, schedule: Q04DX003 (ip), vehicle: saline with Tween-80 104 % of control | dose: 100.0 mg/kg/injection, schedule: Q04DX003 (ip), vehicle: saline with Tween-80 100 % of control

NC(Cc1ccc(O)c(I)c1)C(=O)O (stereo not drawn)
inactive: [1] 109 % of control | [2] 113 % of control | [3] 110 % of control | [4] 120 % of control | [5] 110 % of control | [6] 95 % of control | [7] 115 % of control | dose: 400.0 mg/kg/injection, schedule: Q04DX003 (ip), vehicle: saline 110 % of control

CNCCSS(=O)(=O)CCNC
inactive: dose: 100.0 mg/kg/injection, schedule: Q01DX005 (ip), vehicle: saline 94 % of control

CCc1nnc2ncccn12
inactive: [2] 97 % of control and 102 % of control and 104 % of control | [4] 104 % of control and 107 % of control | [6] 91 % of control and 100 % of control

CCNC(C)(C)C(Cl)c1cccs1 (stereo not drawn)
inactive: dose: 0.78 mg/kg/injection, schedule: Q01DX009 (ip), vehicle: saline 101 % of control | [8] 110 % of control | [9] 90 % of control | [10] 92 % of control and 106 % of control | [1] 87 % of control | [2] 87 % of control and 112 % of control | [3] 100 % of control | [4] 114 % of control | [5] 118 % of control | [7] 86 % of control

CC(=O)Nc1ccc(S(=O)(=O)Oc2ccc([N+](=O)[O-])cc2)cc1
inactive: [8] 96 % of control | [9] 112 % of control | [10] 107 % of control | dose: 12.5 mg/kg/injection, schedule: Q01DX009 (ip), vehicle: saline 93 % of control | [1] 92 % of control and 103 % of control

CN(C)c1ccc(/C=C\c2ccnc3c([N+](=O)[O-])cccc23)cc1
inactive: dose: 50.0 mg/kg/injection, schedule: Q01DX009 (ip), vehicle: saline with Tween-80 115 % of control | dose: 100.0 mg/kg/injection, schedule: Q01DX009 (ip), vehicle: saline with Tween-80 97 % of control | dose: 200.0 mg/kg/injection, schedule: Q01DX009 (ip), vehicle: saline with Tween-80 92 % of control

CC1CC/C(=C\c2ccccc2)C(=O)/C1=C/c1ccccc1 (stereo not drawn)
inactive: dose: 100.0 mg/kg/injection, schedule: Q04DX003 (ip), vehicle: DMSO 112 % of control | dose: 200.0 mg/kg/injection, schedule: Q04DX003 (ip), vehicle: DMSO 87 % of control | dose: 400.0 mg/kg/injection, schedule: Q04DX003 (ip), vehicle: DMSO 87 % of control

Source: PubChem BioAssay AID328 (DTP/NCI, 2004)
